“Also recorded” adds a separate entry of the source.
How the values were obtained:
[1] = intravenous grape sugar load test (IVGTT); assay type: in vivo, rat; details: 0.5 g/kg intravenous, rats fasted 16 hours
Method: (2) Method: 1) Intravenous grape sugar load test (IVGTT) . . . IVGTT was conducted on 8-week old male SD rats by inserting a catheter through the jugular vein. A rare saccharide was administrated to 3 rats, and glucose was administrated to other 3 rats.
Perform intravenous injection (IV) at 0.5 g/kg (i.e., 0.5 g/1000 g=500 mg/1000 g=0.5 mg/g).
Prepare rare-saccharide and glucose solutions in concentration of 0.5 g/mL (i.e., 0.5 g/1000 ul=500 mg/1000 ul=0.5 mg/ul). Prepare 2 mL of solution for each concentration.
Intravenously inject 200 ul of the solution for a 200 g rat.
Intravenously inject 250 ul of the solution for a 250 g rat.
Inject 300 ul of physiological saline after the intravenous injection.
Collect 150 ul of blood sample.
Abstain each rat from food for 16 hours as pretreatment. Allow to drink water.
Collect blood at 9 points in time, i.e., 0, 5, 10, 15, 20, 25, 30, 45 and 60 minutes.

[2] = tested on: ovary cancer cells (OVCAR3); assay: proliferation of cultured cells, MTT method, OVCAR3; assay type: cell-based; details: for proliferation of OVCAR3 cells (cell number over time): saccharide 50 mM, 4 to 5 days, MTT
Method: (§1) Various kinds of rare saccharides were added at a concentration of 50 mM to culture media under the following conditions, and an influence of each rare saccharide upon the progress of proliferation of cancer cell strains was examined.
(§2) (1) Target cells to which the rare saccharides were added: Hepatic cancer cells (HepG2), uterine cancer cells (He1a), ovary cancer cells (OVCAR3), and skin keratinocyte (HaCaT) were selected as target cells to which the rare saccharides were added.
(§3) (2) Rare saccharides added: In addition to D-allose, glucose and D-altros as rare saccharides belonging to ketose were added, as other comparative saccharides, to the addition target cells. Also, D-fructose was employed as a control.
(§4) (3) Experiment method: A number 3,000-5,000 of addition target cells per type were inoculated into a multi-well plastic dish (hereinafter referred to as a “well”) having 96 wells, and were cultured for 4 to 5 days in a culture medium supplemented with 5 to 10% of Fetal Bovine Serum (FBS) depending on the cell types. D-Allose, D-glucose and D-altros were each added at concentration of 50 mM to the addition target cells per type. Similarly, D-fructose as a control was added at a concentration of 50 mM. To examine the influence upon the cell proliferation, the cell number was measured in units of 24 hours by using the MTT method described below.
(1) Preparation of reagents: A predetermined amount of MTT (tetrazolium salt) was dissolved in PBS(−) sterilized in an autoclave to obtain an MTT solution through filtering and sterilization. An acidic solution was prepared by adding 50 mL of N,N-dimethylformaldehyde and water to a predetermined amount of (20 g) of SDS, thereby obtaining a 100 mL of solution. About […] of 1N hydrochloric acid was added to the solution for adjustment of a pH-value to 4.7. The solution was preserved at room temperature and warmed up to 37° C. just before the use.
(2) Test method: The cells were treated with TEP to prepare a cell suspension liquid. This cell suspension liquid was pipetted in a predetermined cell-density (300 to 52000 cells/well) to each well (96-well plate: 0.1 mL of culture medium per well). The saccharide as a drug was added in a predetermined amount to each well, followed by cultivation for a whole day and night in a CO2 incubator. Then, 0.5 mg/mL of the MTT solution was added and the resulting culture was incubated for 4 hours in the incubator. Thereafter, the culture medium was completely removed. Then, in a room kept at 37° C., an acid solution was added in amount of 0.1 mL/well. The well plate was placed on a micro-plate mixer and shaken at 37° C. for 20 minutes to dissolve a colored substance (namely, to dissolve “formazan” in the acid solution). The absorbance of the liquid was measured at a wavelength of 570 to 600 nm by using a spectrophotometer. After dissolving the colored substance (formazan) in the acid solution, the absorbance can be measured directly by a plate reader.
(1) Experiment method: The ovary cancer cells (OVCAR3) were selected as target cells to which a rare saccharide was added, and D-allose as the saccharide was added at concentrations of 1 mM, 5 mM, 10 mM, 20 mM, 50 mM and 100 mM. The experimental conditions, such as the method of culturing the ovary cancer cells (OVCAR3) and the method of measuring the cell number (MTT method), were the same as those in Example 1.

[3] = tested on: Hepatic cancer cells (HepG2); assay: proliferation of cultured cells, MTT method, HepG2; assay type: cell-based, human; details: saccharide 50 mM, 4 to 5 days
Method: as §1, §2, §3, §4
(1) Preparation of reagents: A predetermined amount of MTT (tetrazolium salt) was dissolved in PBS(−) sterilized in an autoclave to obtain an MTT solution through filtering and sterilization. An acidic solution was prepared by adding 50 mL of N,N-dimethylformaldehyde and water to a predetermined amount of (20 g) of SDS, thereby obtaining a 100 mL of solution. […]
(2) Test method: The cells were treated with TEP to prepare a cell suspension liquid. […] The absorbance of the liquid was measured at a wavelength of 570 to 600 nm by using a spectrophotometer. After dissolving the colored substance (formazan) in the acid solution, the absorbance can be measured directly by a plate reader.

CINC-1 mRNA = assay: rat renal ischemia-reperfusion, northern blotting; assay type: in vivo; details: 400 mg/kg into the vein 30 minutes before clamping, 45 minutes ischemia, reperfusion for 2 hours, preliminary
Method: Target . . . Male rat with weight of about 300 g. Experiment method . . . The renal ischemia model was prepared after putting the rat under anesthesia with Nembutal. Renal ischemia . . . After picking up the right kidney, the left renal blood vessel was clamped for 45 minutes. Drugs used . . . D-allose and D-psicose (400 mg/kg per drug) were administrated into the vein 30 minutes before clamping for renal ischemia. Measurement item . . . An influence of each drug upon appearance of a trouble factor, i.e., […] neutrophil chemoattractant (CINC)-1 mRNA, was measured (after reperfusion for 2 hours).

hippocampus neurons = assay: temporary brain ischemia, survival of hippocampus neurons; assay type: in vivo, gerbil; details: for necrosis of hippocampus neurons caused by ischemia: 200 mg/kg before ischemia, 5 minutes ischemia, after 1 week
Method: (2) Method: The bilateral common carotid artery of a gerbil was shut off for 5 minutes. After 1 week, the gerbil was sacrificed and a sample was prepared in accordance with the ordinary method, followed by hematoxyline eosin dyeing. The survival rate was measured by counting the number of hippocampus neurons while looking at them under a microscope. Experiments were performed on a normal control group, a group subjected to only ischemia, and a group administrated with 200 mg/kg of D-allose or D-psicose before ischemia. It is known that glutamates released in large amount from the neurons with ischemia are toxic to the neurons. Such a point was examined by fixing the gerbil to a brain position fixing device, perfusing a solution, in which oxidase glutamate is dissolved, to the hippocampus through a probe for micro-dialysis, and measuring the glutamate concentration outside the hippocampus neurons. Also, the inventors have clarified the relationship between the metabolism of glucose and the action mechanism of D-allose with ischemia by pre-administrating D-allose and 2-deoxiglucose.

SMILES	blood sugar value in IVGTT [1]	insulin concentration in the blood during IVGTT [1]	proliferation of OVCAR3 cells (cell number over time) [2]	proliferation of HepG2 cells (cell number over time) [3]	appearance rate of CINC-1 mRNA (CINC-1 mRNA)	appearance rate of CINC-1 mRNA (CINC-1 mRNA; listed as psicose)	necrosis of hippocampus neurons caused by ischemia (hippocampus neurons)	appearance rate of CINC-1 mRNA (CINC-1 mRNA; listed as allose)	concentration at which the cancer-cell proliferation inhibitory effect was first found ([2]; OVCAR3, 1, 5, 10, 20, 50, 100 mM tested, 10% fetal bovine serum)	dead cells (microscope, trypan blue-exclusion assay) ([2]; OVCAR3 cells to which D-allose was applied)	hippocampus neurons alive after ischemia (hippocampus neurons; ischemia for 5 minutes, rat brains as printed, solution containing D-allose perfused before the ischemia, 80% died without)
O=C[C@H](O)[C@@H](O)[C@H](O)[C@H](O)CO [D-glucose, reference compound]	increased	a rise of the insulin concentration was found	acted so as to promote the proliferation of the cancer cells	hardly found	–	–	–	–	–	–	–
O=C(CO)[C@H](O)[C@H](O)[C@H](O)CO [D-psicose]	no rise of the blood sugar value was found	influences upon the insulin secretion were not found	–	–	suppressed	reduced	not found; also recorded: not confirmed	–	–	–	–
O=C[C@H](O)[C@H](O)[C@H](O)[C@H](O)CO [D-allose]	–	–	strongly inhibited proliferation; also recorded: has a proliferation inhibitory effect	strongly inhibited proliferation; also recorded: has a proliferation inhibitory effect	suppressed	–	significantly inhibited necrosis	reduced	10 mM	dead cells hardly existed	70%

Source: patent US8420606B2, “Method of utilizing physiological activity of rare saccharide and composition containing rare saccharide” (priority 2002, dated 2013)
